Assay [1] addresses T1, Recombinant human JAK2 kinase domain protein (Residues 812-1132) (Homo sapiens, UniProt O60674).
T1 construct: human JAK2 kinase domain protein (Residues 812-1132); made in house; host or cells: insect cells
The assay is described as follows: JAK2 biochemical assay (microfluidic mobility shift, peptide phosphorylation). The settings on record: 25 μM ATP, 0.2 nM total JAK2; Ki calculated from Ki app (tight-binding, competitive); read-out: Biochem JAK2 Ki. As for the experimental part:
(§1) The in vitro biochemical assays quantify JAK-catalyzed phosphorylation of a synthetic peptide, as detected using a LabChip® EZ Reader II microfluidic mobility shift instrument (PerkinElmer; Waltham, MA). The substrate peptide Y-1B has the sequence 5-FAM-VALVDGYFRLTT-NH2. Y-1B is fluorescently labeled on the N-terminus with 5-FAM (5-carboxyfluorescein) and contains a single tyrosine residue (Y) that can be phosphorylated by JAK activity. The substrate peptide stock is prepared in DMSO at 5 mM. Purified recombinant human JAK1 kinase domain protein (Residues 854-1154) was expressed in insect cells and procured from Proteros Biostructures GmbH (Martinsried, Germany). Recombinant human JAK2 kinase domain protein (Residues 812-1132) was expressed in insect cells and purified at Genentech, Inc. (South San Francisco, CA).
(§2) The kinase reaction mixtures contained 100 mM 4-(2-hydroxyethyl)-1-piperazineethanesulfonic acid (HEPES) buffer (pH 7.2), 10 mM magnesium chloride, 0.015% Brij® 35, 4 mM dithiothreitol, 1.5 μM Y-1B peptide substrate, 25 μM adenosine triphosphate (ATP), 1 nM total JAK1 or 0.2 nM total JAK2, and up to 1000 nM test compound in a final concentration of 2% (volume to volume [v/v]) DMSO. In each titration experiment, test compound was tested in duplicate at each of the twelve concentrations. Blank reactions contained ATP, peptide, and DMSO, but no JAK or test compound, whereas uninhibited control reactions contained ATP, peptide, JAK, and DMSO, but no test compound.
(§3) Peptide plus ATP mixture (24 μL) was added to 1 μL of test compound in DMSO (or DMSO alone). The reactions were initiated by adding 25 μL of JAK enzyme to the inhibitor/peptide/ATP mixture before thoroughly mixing the resultant solution. Reactions were incubated at room temperature (22° C.-23° C.) in a final volume of 50 μL per well in 384-well plates. After a 30-minute incubation, the reactions were stopped by adding 25 μL of 150 mM ethylenediaminetetraacetic acid in 100 mM HEPES buffer (pH 7.2) containing 0.015% Brij 35 to each well.
(§4) In each reaction, the residual Y-1B substrate and the phospho-peptide product generated were separated using the EZ Reader 1 instrument. Electrophoretic separation of molecules of product from molecules of substrate was achieved using downstream and upstream voltages of −500 and −2600 V, respectively, at an operating pressure of −1.3 psi. The 5-FAM group present on both the substrate and product peptides was excited at 488 nm, the fluorescence was detected at 530 nm, and the peak heights were reported.
(§5) The extent (or percent) of conversion of substrate to product was calculated from the corresponding peak heights in the electropherogram using HTS Well Analyzer software, Version 5.2 (PerkinElmer), and the following equation (Equation 1): % conversion=[P[…](S+P)]×100 Equation 1 where S and P represent the peak heights of the substrate and product, respectively. After any baseline signal from blank wells containing no JAK was subtracted from the signal of all test wells, the % conversion data were converted to fractional activity as shown in Equation 2, where νi and νo are the % conversion in the presence and absence of test compound, respectively. The % conversion observed in the uninhibited control reactions containing JAK and DMSO vehicle, but no test compound, was defined to have fractional activity=1 (with no inhibitor present, νi=νo), whereas blank wells with no JAK were defined as having fractional activity=0. Fractional activity was plotted against test compound concentration and the data were fitted using XLfit software (IDBS; Guildford, United Kingdom) to a tight-binding apparent inhibition constant (Ki^app) quadratic equation (see Equation 2) (Williams J W, Morrison J F. The kinetics of reversible tight-binding inhibition. Methods Enymol 1979; 63:437-67), which was used to calculate fractional activity and Ki^app […]

Assay [2] addresses T2, recombinant human JAK1 kinase domain protein (Residues 854-1154) (Homo sapiens, UniProt P23458).
T2 construct: human JAK1 kinase domain protein (Residues 854-1154); purchased Proteros Biostructures GmbH (Martinsried, Germany); host or cells: insect cells
Description: JAK1 biochemical assay (microfluidic mobility shift, peptide phosphorylation). Conditions: 25 μM ATP, 1 nM total JAK1; Ki calculated from Ki app (tight-binding, competitive); read-out: Biochem JAK1 Ki. As for the experimental part:
as §1, §2, §3, §4, §5

Assay [3] has as its system JAK1 (IL-13-stimulated STAT6 phosphorylation in BEAS-2B cells). Description: P-STAT6 BEAS-2B+IL-13 cell assay. The assay is classed as cell-based, human. The settings on record: Homo sapiens, BEAS-2B, 1 h, 1 hour compound, IL-13 15 minutes, IC50 by four-parameter fit, read-out: Cellular JAK1 PSTAT6 BEAS2B + IL13. The protocol: In order to study the effect of JAK1 inhibitors in a cell line that is relevant to the cell biology of human asthma, an IL-13-stimulated STAT6 phosphorylation assay in the human lung bronchial epithelial BEAS-2B cell line was developed.
BEAS-2B cells (ATCC® CRL-9609™) were grown in Bronchial Epithelial Growth Medium (BEGM) (Lonza Catalog No. CC-3170; Walkersville, MD; or PromoCell Catalog No. C-21060; Heidelberg, Germany). Test compound stock solutions (0.5 mM in DMSO) were serially diluted 1:2 in DMSO to generate a 10-point concentration curve (at 500× test concentration), which was further diluted by a 50-fold dilution step in BEGM to generate a 10× concentration curve (in 2% DMSO). Cells were plated at 100,000 cells/well in 200 μL of BEGM in 96-well plates and incubated for 48 hours at 37° C. in a humidified incubator. Medium was aspirated from the cells and replaced with 70 μL of fresh BEGM. Diluted test compound (10 μL; or 2% DMSO in assay medium) was added to the cells, and the plates were incubated for 1 hour at 37° C. in a humidified incubator. Twenty μL of 250 ng/mL human recombinant IL-13 (Bio Techne Catalog No. 213-ILB) was then added to the cells and incubated for 15 minutes at 37° C. Medium was aspirated from the cells and 60 μL of ice-cold 1×cell lysis buffer (Cell Signaling Technologies; Catalog No. 9803S) containing 1 mM PMSF was added to the cells. Assay plates were incubated at −80° C. for at least 1 hour. P-STAT6 was measured by coating GAR plates (MSD; Catalog No. L45RA-1) with rabbit anti-human total STAT6 antibody (Cell Signaling Technologies; Catalog No. 9362S), incubating the cell lysates in the coated plates overnight at 4° C., and then detecting with mouse anti-phospho-STAT6 (Tyr641) Clone 16E12 antibody (Millipore; Catalog No. 05-590, custom labeled by MSD with SULFO-tag) using standard MSD plate processing, washing, and detection protocols. Plates were read on the MESO SECTOR S600.
Data analysis was performed by subtracting negative control values from all wells and determining percent of control using the positive control values; the IC50 was determined with a four-parameter logistic fit model as shown in Equation 4.

pIC50, pKi: −log10 of the molar value.

T1 sequence (O60674 812-1132): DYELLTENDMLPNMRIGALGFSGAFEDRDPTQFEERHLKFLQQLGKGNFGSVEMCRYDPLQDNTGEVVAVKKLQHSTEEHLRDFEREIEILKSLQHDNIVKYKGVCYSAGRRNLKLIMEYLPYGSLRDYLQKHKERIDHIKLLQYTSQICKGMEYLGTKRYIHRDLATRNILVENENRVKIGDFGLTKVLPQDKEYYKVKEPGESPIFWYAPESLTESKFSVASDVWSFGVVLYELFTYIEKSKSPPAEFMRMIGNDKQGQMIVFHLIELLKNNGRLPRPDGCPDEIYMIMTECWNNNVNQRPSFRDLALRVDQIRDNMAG
T2 sequence (P23458 854-1154): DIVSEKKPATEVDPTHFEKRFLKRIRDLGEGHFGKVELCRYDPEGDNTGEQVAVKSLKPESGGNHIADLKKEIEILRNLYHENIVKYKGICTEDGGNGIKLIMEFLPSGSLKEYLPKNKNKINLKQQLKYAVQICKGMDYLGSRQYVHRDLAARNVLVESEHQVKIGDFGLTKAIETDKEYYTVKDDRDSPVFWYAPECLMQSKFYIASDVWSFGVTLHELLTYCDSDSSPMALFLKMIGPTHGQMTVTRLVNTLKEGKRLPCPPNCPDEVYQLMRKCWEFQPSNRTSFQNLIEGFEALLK

In the case of `O=C(Nc1cn(Cc2nnn(CCO)n2)nc1-c1cc(Cl)ccc1OC(F)F)c1cnn2cccnc12` [Example 1, N-[3-[5-chloro-2-(difluoromethoxy)phenyl]-1-[[2-(2-hydroxyethyl)tetrazol-5-yl]methyl]pyrazol-4-yl]pyrazolo[1,5-a]pyrimidine-3-carboxamide], the pKi in assay [1] was 10.05; in assay [2], 9.82. Moreover, the pIC50 in assay [3] is 8.17.

`O=C(Nc1cn(Cc2nnn(CCN3CCOCC3)n2)nc1-c1cc(Cl)ccc1OC(F)F)c1cnn2cccnc12` [Example 2, N-[3-[5-chloro-2-(difluoromethoxy)phenyl]-1-[[2-(2-morpholinoethyl)tetrazol-5-yl]methyl]pyrazol-4-yl]pyrazolo[1,5-a]pyrimidine-3-carboxamide]: the pKi is 9.54 in assay [1] and 9.27 in assay [2]. The pIC50 in assay [3] is 7.85.

As for `CN1CCC(n2nnc(Cn3cc(NC(=O)c4cnn5cccnc45)c(-c4cc(Cl)ccc4OC(F)F)n3)n2)CC1` [Example 3, N-[3-[5-chloro-2-(difluoromethoxy)phenyl]-1-[[2-(1-methyl-4-piperidyl)tetrazol-5-yl]methyl]pyrazol-4-yl]pyrazolo[1,5-a]pyrimidine-3-carboxamide], the figures for the pKi in assay [1] and in assay [2] were 9.37 and 9.24, respectively. In assay [3], the pIC50 was 7.85.

Regarding `O=C(Nc1cn(Cc2nnn(C3COC3)n2)nc1-c1cc(Cl)ccc1OC(F)F)c1cnn2cccnc12` [Example 4, N-[3-[5-chloro-2-(difluoromethoxy)phenyl]-1-[[2-(oxetan-3-yl)tetrazol-5-yl]methyl]pyrazol-4-yl]pyrazolo[1,5-a]pyrimidine-3-carboxamide], the pKi is 9.92 in assay [1] and 9.64 in assay [2]. For the same compound, the pIC50 in assay [3] was 8.17.

In the case of `O=C(Nc1cn(Cc2nnnn2CCN2CCOCC2)nc1-c1cc(Cl)ccc1OC(F)F)c1cnn2cccnc12` [Example 5, N-[3-[5-chloro-2-(difluoromethoxy)phenyl]-1-[[1-(2-morpholinoethyl)tetrazol-5-yl]methyl]pyrazol-4-yl]pyrazolo[1,5-a]pyrimidine-3-carboxamide], the figures for the negative logarithm of the Ki (pKi) in assay [1] and in assay [2] were 9.64 and 9.40, respectively. In assay [3], the pIC50 was 7.82.

As for `O=C(Nc1cn(Cc2nnn(C3CCN(C4CCOCC4)CC3)n2)nc1-c1cc(Cl)ccc1OC(F)F)c1cnn2cccnc12` [Example 9, N-[3-[5-chloro-2-(difluoromethoxy)phenyl]-1-[[2-(1-tetrahydropyran-4-yl-4-piperidyl)tetrazol-5-yl]methyl]pyrazol-4-yl]pyrazolo[1,5-a]pyrimidine-3-carboxamide], the figures for the pKi in assay [1] and in assay [2] were 9.62 and 9.32, respectively. In addition, in assay [3], the pIC50 was 7.89.

Consider `O=C(Nc1cn(Cc2nnnn2C2CCNCC2)nc1-c1cc(OC(F)F)ccc1OC(F)F)c1cnn2cccnc12` [Example 24, N-[3-[2,5-bis(difluoromethoxy)phenyl]-1-[[1-(4-piperidyl)tetrazol-5-yl]methyl]pyrazol-4-yl]pyrazolo[1,5-a]pyrimidine-3-carboxamide], for which the pKi in assay [1] is 9.04; in assay [2], 9.08. Besides, the pIC50 in assay [3] is 6.33.

Take `NCCN1CCC(n2nnc(Cn3cc(NC(=O)c4cnn5cccnc45)c(-c4cc(OC(F)F)ccc4OC(F)F)n3)n2)CC1` [Example 25, N-[1-[[2-[1-(2-aminoethyl)-4-piperidyl]tetrazol-5-yl]methyl]-3-[2,5-bis(difluoromethoxy)phenyl]pyrazol-4-yl]pyrazolo[1,5-a]pyrimidine-3-carboxamide]: the negative logarithm of the Ki (pKi) in assay [1] was 9.10; in assay [2], 9.11. Further, in assay [3], the pIC50 is 6.52.

For `CN1CC(Cn2nnc(Cn3cc(NC(=O)c4cnn5cccnc45)c(-c4cc(OC(F)F)ccc4OC(F)F)n3)n2)C1` [Example 32, N-[3-[2,5-bis(difluoromethoxy)phenyl]-1-[[2-[(1-methylazetidin-3-yl)methyl]tetrazol-5-yl]methyl]pyrazol-4-yl]pyrazolo[1,5-a]pyrimidine-3-carboxamide], the negative-log Ki (pKi) in assay [1] was 9.21; in assay [2], 9.14. In addition, the pIC50 in assay [3] was 7.66.

As to `CN1CC(Cn2nnnc2Cn2cc(NC(=O)c3cnn4cccnc34)c(-c3cc(OC(F)F)ccc3OC(F)F)n2)C1` [Example 33, N-[3-[2,5-bis(difluoromethoxy)phenyl]-1-[[1-[(1-methylazetidin-3-yl)methyl]tetrazol-5-yl]methyl]pyrazol-4-yl]pyrazolo[1,5-a]pyrimidine-3-carboxamide], the pKi in assay [1] was 9.25; in assay [2] it was 9.26. Also, in assay [3], the pIC50 was 7.29.

For the compound `CNCCN1CC(n2nnc(Cn3cc(NC(=O)c4cnn5cccnc45)c(-c4cc(OC(F)F)ccc4OC(F)F)n3)n2)C1` [Example 34, N-[3-[2,5-bis(difluoromethoxy)phenyl]-1-[[2-[1-[2-(methylamino)ethyl]azetidin-3-yl]tetrazol-5-yl]methyl]pyrazol-4-yl]pyrazolo[1,5-a]pyrimidine-3-carboxamide], the pKi is 9.54 in assay [1] and 9.40 in assay [2]. The pIC50 in assay [3] was 6.74.

As to `CSc1ccc(OC(F)F)c(-c2nn(Cc3nnn(CCN)n3)cc2NC(=O)c2cnn3cccnc23)c1` [Example 35, N-[1-[[2-(2-aminoethyl)tetrazol-5-yl]methyl]-3-[2-(difluoromethoxy)-5-methylsulfanyl-phenyl]pyrazol-4-yl]pyrazolo[1,5-a]pyrimidine-3-carboxamide], the figures for the pKi in assay [1] and in assay [2] were 9.74 and 9.43, respectively. The pIC50 in assay [3] is 7.89.

One may read the pKi as the negative decadic logarithm of the Ki, by convention in mol/L.

Values taken from patent US12247032B2, “Substituted pyrazolo[1,5-a]pyrimidines as inhibitors of JAK kinases” (Genentech, Inc., priority 2019, dated 2025).
